Entries after “also recorded” stand apart in the source; their conditions may differ. Where two headings read alike, the source gives them in different places.
What was measured:
[1] = sedative / central nervous system depressant properties; format: in vivo; conditions: in words
mice [2] = experiment: spontaneous locomotor activity in the photocell chamber; format: in vivo; conditions: for ED50: Mus musculus, read-out: Spontaneous Locomotor Activity: Depressant Dose 50% (dose reducing activity to 50 percent of control)
[3] = motor coordination, rotorod method; format: in vivo; conditions: mouse, mice; for TD50: read-out: Loss of Motor Coordination, ED50; for NOAEL: read-out: dose until which there is no significant impairment of motor coordination (rotorod)
Experimental: There is no significant impairment of motor coordination as determined with the rotorod method (Kinnard, W. J. and Carr, C. J., J. Pharmacol. Exptl. Therap., 121: 354 (1957)), on the other hand, until doses of 900 mg/kg, p.o. or 500-900 mg/kg i.p. have been administered.

mice [4] = experiment: protection against maximal electroshock; format: in vivo; conditions: Mus musculus, read-out: Anticonvulsant Protective Dose, 50% (Maximum Electroshock)
mice [5] = experiment: prolongation of loss of the righting reflex produced by barbital or hexobarbital; format: in vivo; conditions: i.p., appropriate doses of barbital or hexobarbital
acute LD50 = conditions: mouse, in vivo, mice

In the case of `Cc1ccc2c(c1)C(=O)CCC21CCC(=O)NC1=O` (centres unmarked) [Example 9, 2,3-dihydro-6-methylspiro[naphthalene-1(4H),3'-piperidine]-2',4,6'-trione], the sedative properties [1] is reported as “has sedative properties”.

With `O=C1CCC2(CCC(=O)c3ccccc32)C(=O)N1` (centres unmarked) [Example 1, 2,3-dihydrospiro-[naphthalene-1(4H),3'-piperidine]-2',4,6'-trione] the ED50 (mice [2]; ip) was 50 to 60 mg/kg, the ED50 (mice [2]; po) was 150 mg/kg and the “Spontaneous Locomotor Activity: Depressant Dose 50% (dose reducing activity to 50 percent of control)” value (mice [2]; i.p.) was 50 to 60 mg/kg. The TD50 ([3]; ip, i.p.) was 500 to 900 mg/kg, the NOAEL ([3]; ip, i.p.) was 500 to 900 mg/kg and the TD50 ([3]; oral) was 900 mg/kg. It also gave an NOAEL ([3]; po, p.o.) of at least 900 mg/kg, an ED50 (mice [4]; ip) of 160 to 170 mg/kg and an ED50 (mice [4]; po) of 120 mg/kg. For the same compound, the “dose that significantly prolongs loss of the righting reflex produced by barbital or hexobarbital” value (mice [5]) was “about 300 mg/kg”, the LD50 (acute LD50; ip, intraperitoneally) was over 2000 mg/kg and the LD50 (acute LD50; po, orally) was over 2000 mg/kg. The “central nervous system depressant properties” value [1] was “central nervous system depressant properties”.

For `O=C1CCC2(CCC(=O)c3cc([N+](=O)[O-])ccc32)C(=O)N1` (centres unmarked) [Example 19, 2,3-dihydro-6-nitrospiro-[naphthalene-1(4H),3'-piperidine]-2',4,6'-trione], the sedative properties [1] was “has sedative properties”.

With `COc1cc2c(cc1OC)C1(CCC(=O)NC1=O)CCC2=O` (centres unmarked) [Example 11, 2,3-dihydro-6,7-dimethoxyspiro-[naphthalene-1(4H),3'-piperidine]-2',4,6'-trione] the sedative properties [1] was “has sedative properties”.

For `Cc1cccc2c1C1(CCC(=O)NC1=O)CCC2=O` (centres unmarked) [Example 15, 2,3-dihydro-8-methylspiro-[naphthalene-1(4H),3'-piperidine]-2',4,6' -trione], the sedative properties [1] was “has sedative properties”.

In the case of `CN1C(=O)CCC2(CCC(=O)c3cc(Cl)ccc32)C1=O` (centres unmarked) [Example 18, 6-chloro-2,3-dihydro-1'-methylspiro[naphthalene-1(4H),3'-piperidine]-2',4,6'-trione], the ED50 (mice [2]; po) is reported as 13 mg/kg, the “activity compared with the known compound (Example 1)” value (mice [2]; in words, as shown in the table) is reported as “substantially greater activity” and the TD50 ([3]; oral) is reported as 285 mg/kg. The sedative properties [1] was “has sedative properties; also recorded: particularly useful as a sedative”.

With `CCN1C(=O)CCC2(CCC(=O)c3ccccc32)C1=O` (centres unmarked) [Example 6, 1'-ethyl-2,3-dihydrospiro-[naphthalene-1(4H),3'-piperidine]-2',4,6'-trione] the sedative properties [1] was “has sedative properties”.

In the case of `Cc1cccc2c1C1(CCC2=O)CCC(=O)N(C)C1=O` (centres unmarked) [Example 16, 2,3-dihydro-1',8-dimethylspiro-[naphthalene-1(4H),3'-piperidine]-2',4,6'-trione], the sedative properties [1] is reported as “has sedative properties”.

With `O=C1CC2(CCC(=O)c3ccccc32)C(=O)N1` (centres unmarked) [Example 14, 2,3-dihydrospiro[naphthalene-1(4H),3'-pyrrolidine]-2',4,5'-trione] the sedative properties [1] was “has sedative properties”.

With `COc1cc2c(cc1OC)C1(CCC2=O)CCC(=O)N(C)C1=O` (centres unmarked) [Example 12, 2,3-dihydro-6,7-dimethoxy-1'-methylspiro-[naphthalene-1(4H),3'-piperidine]-2',4,6'-trione] the sedative properties [1] was “has sedative properties”.

With `O=C1CCC2(CCC(=O)c3cc(Cl)ccc32)C(=O)N1` (centres unmarked) [Example 17, 6-chloro-2,3-dihydrospiro[naphthalene-1(4H),3'-piperidine]-2',4,6'-trione] the sedative properties [1] was “has sedative properties”.

In the case of `COc1ccc2c(c1)C(=O)CCC21CCC(=O)N(C)C1=O` (centres unmarked) [Example 8, 2,3-dihydro-6-methoxy-1'-methylspiro[naphthalene-1(4H),3'-piperidine]-2',4,6'-trione], the sedative properties [1] is reported as “has sedative properties”.

With `Cc1ccc2c(c1)C(=O)CCC21CCC(=O)N(C)C1=O` (centres unmarked) [Example 10, 1',6-dimethyl-2,3-dihydrospiro-[naphthalene-1(4H),3'-piperidine]-2',4,6'-trione] the sedative properties [1] was “has sedative properties”.

In the case of `O=C1CCC2(CC(=O)c3ccccc32)C(=O)N1` (centres unmarked) [Example 13, spiro-[indane-1,3'-piperidine]-2,3,6'-trione], the sedative properties [1] is reported as “has sedative properties”.
